Holding throughout (format): physicochemical
A short description of data set [1]: Crystal form stability of Lubiprostone crystal V in the third solvent used for seeded crystallization.
Data set [2] in a line: Storage stability of Lubiprostone crystal V (crystalline form and degradation to impurity A). As to conditions: six months of storage at about −20° C.
The nature of data set [3]: Crystal form transformation of Lubiprostone crystal V stirred in isopropyl acetate/heptane, XRPD. Particulars: stirred in isopropyl acetate (0.16 ml)/heptane (0.84 ml) at 20° C., within two hours. As for the experimental part:
X-ray Powder Diffraction (XRPD) Analysis: The XRPD patterns were collected on a Bruker D2 PHASER diffractometer with fixed divergence slits and 1D LYNXEYE detector. The samples (ca. 100 mg) were flatly placed on a sample holder. The prepared samples were analyzed over a 2θ range from 5° to 50° with step size of 0.02 degrees and step time of 1 second using CuKα radiation at a power of 10 mA and 30 kV. The CuKβ radiation was removed by a divergent beam nickel filter.
Lubiprostone crystal V (0.20 g, from Example 9) was added to a mixture of isopropyl acetate (0.16 ml) and heptane (0.84 ml)(i.e., the solvent system for crystallization of US 2010/056808), and the mixture was stirred at 20° C. for 2 hours. The resulting suspension was filtered and rinsed, and then dried under high vacuum at room temperature to give Lubiprostone crystal I. The XRPD results are shown in FIGS. 12(a) and 12(b).
Therefore, the Lubiprostone crystal V is a novel crystalline form of Lubiprostone, and the crystalline form shown in FIG. 2 found in the unit cell of Lubiprostone crystal II by optical microscope is an enantiomorph of Lubiprostone, rather than Lubiprostone crystal V.

As to `CCCCC(F)(F)[C@@]1(O)CC[C@H]2[C@@H](CC(=O)[C@@H]2CCCCCCC(=O)O)O1` [Lubiprostone crystal V, Lubiprostone], in data set [1] (esters such as isopropyl acetate as third solvent), the “conversion of crystalline form to Lubiprostone crystal I” value is on record as “rapidly converted”. Also, the “stability of crystal form against conversion to Lubiprostone crystal I” value in data set [1] (o-xylene, m-xylene, ethyl ether, isopropyl ether or methyl tert-butyl ether as third solvent) was “very stable”. In addition, the “stability on storage (other crystalline forms, degraded products of impurity A)” value in data set [2] is “good stability”. Further, in data set [3], the “conversion of crystalline form to Lubiprostone crystal I (XRPD)” value is listed as “completely converted”.

The record behind these values is US10253011B1, “Lubiprostone crystals and methods for preparing the same” (CHIROGATE INTERNATIONAL INC., priority 2018, dated 2019).
